What was measured:
[1] = Solubility of the sodium salt in water; type: physicochemical
Method: 2,4,6-Triiodo-5-methoxyacetamido-N-methylisophthalamic acid (6.005 g.) was dissolved in water with NaOH solution at pH 7.4 to form a supersaturated solution (7.0 ml.). When the solution was allowed to stand at room temperature overnight, crystallization occurred. The crystals were collected and dried.
The sodium salt (2.71 g.) was then dissolved in water to form an 82% w/v solution (3.3 ml.). After the solution was allowed to stand at 24° overnight some crystallization occurred. The solution was stirred and the supernatant was taken (by centrifugation) for specific gravity measurement (sp. gr. 1.43) and for water determination (found, […] by Karl Fischer method). The solubility of the sodium salt in water was therefore determined to be about 70% w/v at 24°.

[2] = system: man; conditions: Pfeiffer et al., DOS 2,118,219/1972; cited from earlier work
[3] = system: rats; conditions: Priewe et al., DAS 1,129,260/1962; cited from earlier work
[4] = system: dogs; conditions: Pfeiffer et al., DOS 2,118,219/1972; cited from earlier work
[5] = system: Swiss Albino mice (Charles River); test: Acute Intravenous Toxicity Studies in Mice (LD50); type: in vivo; conditions: lateral tail vein, 1 ml/min, solutions containing 28.27% of iodine, seven day observation
Method: (§1) The techniques utilized are outlined below.
I. Acute Intravenous Toxicity Studies in Mice
Swiss Albino mice (Charles River) were dosed in the lateral tail vein with solutions of the iodinated compound containing 28.27% of iodine, injected at the rate of 1 ml/min. […] The LD50 values were calculated by the method of Litchfield and Wilcoxon (J. of Pharmac. and Exptl. Therap. 96:99-113, 1949).

[6] = in vivo; conditions: mouse, intracerebral, fixed volumes of various concentrations, seven day observation, meglumine salt, read-out: LD50 of Meglumine Salt, Intracerebral (Mice)
Description: as §1
II. Intracerebral Toxicity in Mice
Swiss Albino mice (Charles River) were used. […] The animals were observed immediately after injections and daily throughout a seven day observation period.

[7] = in vivo; conditions: rat, intracisternal, two day observation, meglumine salt, read-out: LD50 of Meglumine Salt, Intracisternal (Rats)
Description: as §1
III. Intracisternal Toxicity in Rats
Sprague Dawley (Carworth) rats were used. […] After dosing, the animals were housed individually, and observed for immediate reactions and periodically for a two day observation period.

## CNC(=O)c1c(I)c(NC(=O)COC)c(I)c(C(=O)[O-])c1I.[Na+]
[1]; 24°, sodium salt, from specific gravity and Karl Fischer water of supernatant
  solubility thermodynamic: ~700 mg/mL
[1]; sodium salt in water
  temperature dependence of solubility: highly temperature dependent

## COCC(=O)Nc1c(I)c(NC(C)=O)c(I)c(C(=O)O)c1I [3-acetamido-5-methoxyacetamido-2,4,6-triiodobenzoic acid]
[2]
  circulatory disturbances in man: strong circulatory disturbances
[3]
  LD50 (i.v. in rats): 16 g/kg
[4]
  circulatory disturbances in dogs: strong circulatory disturbances

## CNC(=O)c1c(I)c(NC(C)=O)c(I)c(C(=O)O)c1I [Iothalamic Acid, 5-acetamido-2,4,6-triiodo-N-methylisophthalamic acid, reference compound]
[5]
  LD50 of Meglumine Salt, I.V. (Mice): 5742 mg. contained iodine/kg. anima

## CNC(=O)c1c(I)c(NC(=O)COC)c(I)c(C(=O)O)c1I [meglumine 2,4,6-triiodo-5-methoxyacetamido-N-methylisophthalamate]
[6]
  LD50 at 168 h: 700 mg/kg
[7]
  LD50 at 48 h: 40 mg/kg
[5]
  LD50 of Meglumine Salt, I.V. (Mice): 6700 mg. contained iodine/kg. anima

— patent publication US3953497A, “2,4,6-Triiodo-5-methoxyacetamido-N-methylisophthalamic acid and salts, acyl halides and esters thereof” (Mallinckrodt, Inc., priority 1974, dated 1976)
